Laboratory results: patent publication US11766422B2, “Galloylated procyanidins for treating endovascular dysfunction and increasing blood flow” (UNIVERSITY OF SOUTH FLORIDA, priority 2018, dated 2023)
Where two headings read alike, the source gives them in different places.

Columns and labels:
pancreatic lipase = biological target: T1, pancreatic lipase (Homo sapiens, UniProt P16233); conditions: Control: Untreated enzyme; cited from earlier work
T1 sequence (P16233 17-465): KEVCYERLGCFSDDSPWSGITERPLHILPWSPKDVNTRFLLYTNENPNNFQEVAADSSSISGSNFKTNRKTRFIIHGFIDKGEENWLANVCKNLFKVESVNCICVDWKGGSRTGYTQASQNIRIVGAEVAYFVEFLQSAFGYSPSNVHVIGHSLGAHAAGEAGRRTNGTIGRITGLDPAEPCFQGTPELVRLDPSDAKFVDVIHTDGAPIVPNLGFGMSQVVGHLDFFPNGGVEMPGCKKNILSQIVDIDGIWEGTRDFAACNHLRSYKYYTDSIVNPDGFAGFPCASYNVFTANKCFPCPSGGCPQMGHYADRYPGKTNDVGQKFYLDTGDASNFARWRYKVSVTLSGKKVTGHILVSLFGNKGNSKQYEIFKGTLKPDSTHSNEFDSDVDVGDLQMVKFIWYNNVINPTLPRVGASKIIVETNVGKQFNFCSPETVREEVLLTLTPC

[1] = system: heme oxygenase 1 in RAW264, 7 cells; conditions: galloyl-derivative compared to non-galloylated parent molecule; cited from earlier work
HUVEC [2] = conditions: cited from earlier work
[3] = system: S-G cells (immortalized gum epithelial cells); conditions: cited from earlier work
RAW264.7 mouse cells = experiment: Nitric Oxide Assay (DAF-FM fluorescence, confocal microscopy); assay type: cell-based
Protocol: Drug Preparation. […] The current formulation, L-arginine (COMPOUND SOLUTIONS) and L-citrulline DL-malate 2:1 (COMPOUND SOLUTIONS) were each prepared at 300 mg/ml in DMEM without phenol red (CORNING) and stored at −20° C. until use. Arginine silicate and lipopolysaccharides from E. coli 0111: B4 (LPS; SIGMA ALDRICH) were dissolved in DMSO to 300 mg/ml and 50 μg/ml, respectively, and stored frozen until use. 4,5-Diaminofluorescein Diacetate (DAF-FM) was diluted from 5 mM stocks in DMSO.
Cell Culture. […] All experiments were completed with cultures under 8 passages, and cell densities were maintained between 0.2×10^6 and 0.8×10^6 cells per ml during maintenance.
Cells were triturated with complete growth medium. Density was determined under phase-contrast using 0.2% Trypan blue. Three viable cell counts were performed on the hemocytometer and averaged.
Nitric Oxide Assay. […] DAF-FM diacetate is essentially non-fluorescent until it reacts with nitric oxide to form a fluorescent benzotriazole. DAF-FM diacetate is cell-permeant and passively diffuses across cellular membranes. Once inside cells, it is deacetylated by intracellular esterases to become DAF-FM.
Here, cells (50,000) in 3 ml of complete growth medium were plated onto 35-mm glass bottom dishes (MATTEK) pre-coated with poly-D-lysine. Cells were grown for 24 h and washed twice in HBS. Three (3) ml of serum-free medium was added. Cells were then treated with 1 μM lipopolysaccharide or various concentrations of test agents and grown for an additional 30 min. DAF-FM was added to cells to a final concentration of 2 μM and incubated for an additional 30 min.
For confocal microscopy, medium was removed, and cells were washed once in HBS and replaced with 3 ml Live Cell Imaging solution (INVITROGEN). […] For cell treatments resulting in little or no fluorescence, 4′,6-diamidino-2-phenylindole (DAPI, MOLECULAR PROBES) was added at a final concentration of 300 nM to an additional sample. Images were captured and analyzed as tiff formatted files. […] For determining fluorescence, the entire image was analyzed for each image taken.

fatty acid synthase = fatty acid synthase (Homo sapiens, UniProt P49327); conditions: Control: Untreated enzyme; cited from earlier work
[4] = system: fatty acid synthase expression, MCF-7 cells; conditions: Control: Untreated cells; cited from earlier work
LNCaP and DU145 cells = conditions: Control: Untreated cells; cited from earlier work
[5] = system: MCF-7 and MDA-MB231 cells; conditions: Control: Untreated cells; cited from earlier work
HL-60 cells [6] = conditions: Control: Untreated cells; cited from earlier work
[7] = biological target: T2, rat liver microsomal 5α-reductase (Rattus norvegicus, UniProt P24008); conditions: cited from earlier work
T2 sequence (P24008 1-259): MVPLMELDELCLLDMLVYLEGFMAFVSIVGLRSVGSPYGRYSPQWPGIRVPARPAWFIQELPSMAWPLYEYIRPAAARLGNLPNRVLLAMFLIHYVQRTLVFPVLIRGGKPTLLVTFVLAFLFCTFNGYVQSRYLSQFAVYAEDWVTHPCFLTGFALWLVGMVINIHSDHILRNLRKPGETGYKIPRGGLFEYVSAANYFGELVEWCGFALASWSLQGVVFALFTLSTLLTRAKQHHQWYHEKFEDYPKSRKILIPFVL

erythrocytes = conditions: Control: Untreated erythrocytes; cited from earlier work
K562 cells = conditions: cited from earlier work
HL-60 cells [8] = conditions: Control: Untreated cells; cited from earlier work; remark: listed apart in the source
HUVEC [9] = conditions: Control: Untreated cells; cited from earlier work
[10] = biological target: type 1 ryanodine receptor (Homo sapiens, UniProt P21817); conditions: Control: Untreated receptor; cited from earlier work
NA+/K+ ATPase pump = conditions: Control: Untreated pump; cited from earlier work
NA/H exchanger = conditions: Control: Untreated exchanger; cited from earlier work
[11] = Control: C, EC; cited from earlier work
[12] = system: human umbilical vein endothelial cells (HUVEC); conditions: galloyl-derivative compared to non-galloylated parent molecule; cited from earlier work

type 1 ryanodine receptor, sequence (P21817 whole entry, species assumed): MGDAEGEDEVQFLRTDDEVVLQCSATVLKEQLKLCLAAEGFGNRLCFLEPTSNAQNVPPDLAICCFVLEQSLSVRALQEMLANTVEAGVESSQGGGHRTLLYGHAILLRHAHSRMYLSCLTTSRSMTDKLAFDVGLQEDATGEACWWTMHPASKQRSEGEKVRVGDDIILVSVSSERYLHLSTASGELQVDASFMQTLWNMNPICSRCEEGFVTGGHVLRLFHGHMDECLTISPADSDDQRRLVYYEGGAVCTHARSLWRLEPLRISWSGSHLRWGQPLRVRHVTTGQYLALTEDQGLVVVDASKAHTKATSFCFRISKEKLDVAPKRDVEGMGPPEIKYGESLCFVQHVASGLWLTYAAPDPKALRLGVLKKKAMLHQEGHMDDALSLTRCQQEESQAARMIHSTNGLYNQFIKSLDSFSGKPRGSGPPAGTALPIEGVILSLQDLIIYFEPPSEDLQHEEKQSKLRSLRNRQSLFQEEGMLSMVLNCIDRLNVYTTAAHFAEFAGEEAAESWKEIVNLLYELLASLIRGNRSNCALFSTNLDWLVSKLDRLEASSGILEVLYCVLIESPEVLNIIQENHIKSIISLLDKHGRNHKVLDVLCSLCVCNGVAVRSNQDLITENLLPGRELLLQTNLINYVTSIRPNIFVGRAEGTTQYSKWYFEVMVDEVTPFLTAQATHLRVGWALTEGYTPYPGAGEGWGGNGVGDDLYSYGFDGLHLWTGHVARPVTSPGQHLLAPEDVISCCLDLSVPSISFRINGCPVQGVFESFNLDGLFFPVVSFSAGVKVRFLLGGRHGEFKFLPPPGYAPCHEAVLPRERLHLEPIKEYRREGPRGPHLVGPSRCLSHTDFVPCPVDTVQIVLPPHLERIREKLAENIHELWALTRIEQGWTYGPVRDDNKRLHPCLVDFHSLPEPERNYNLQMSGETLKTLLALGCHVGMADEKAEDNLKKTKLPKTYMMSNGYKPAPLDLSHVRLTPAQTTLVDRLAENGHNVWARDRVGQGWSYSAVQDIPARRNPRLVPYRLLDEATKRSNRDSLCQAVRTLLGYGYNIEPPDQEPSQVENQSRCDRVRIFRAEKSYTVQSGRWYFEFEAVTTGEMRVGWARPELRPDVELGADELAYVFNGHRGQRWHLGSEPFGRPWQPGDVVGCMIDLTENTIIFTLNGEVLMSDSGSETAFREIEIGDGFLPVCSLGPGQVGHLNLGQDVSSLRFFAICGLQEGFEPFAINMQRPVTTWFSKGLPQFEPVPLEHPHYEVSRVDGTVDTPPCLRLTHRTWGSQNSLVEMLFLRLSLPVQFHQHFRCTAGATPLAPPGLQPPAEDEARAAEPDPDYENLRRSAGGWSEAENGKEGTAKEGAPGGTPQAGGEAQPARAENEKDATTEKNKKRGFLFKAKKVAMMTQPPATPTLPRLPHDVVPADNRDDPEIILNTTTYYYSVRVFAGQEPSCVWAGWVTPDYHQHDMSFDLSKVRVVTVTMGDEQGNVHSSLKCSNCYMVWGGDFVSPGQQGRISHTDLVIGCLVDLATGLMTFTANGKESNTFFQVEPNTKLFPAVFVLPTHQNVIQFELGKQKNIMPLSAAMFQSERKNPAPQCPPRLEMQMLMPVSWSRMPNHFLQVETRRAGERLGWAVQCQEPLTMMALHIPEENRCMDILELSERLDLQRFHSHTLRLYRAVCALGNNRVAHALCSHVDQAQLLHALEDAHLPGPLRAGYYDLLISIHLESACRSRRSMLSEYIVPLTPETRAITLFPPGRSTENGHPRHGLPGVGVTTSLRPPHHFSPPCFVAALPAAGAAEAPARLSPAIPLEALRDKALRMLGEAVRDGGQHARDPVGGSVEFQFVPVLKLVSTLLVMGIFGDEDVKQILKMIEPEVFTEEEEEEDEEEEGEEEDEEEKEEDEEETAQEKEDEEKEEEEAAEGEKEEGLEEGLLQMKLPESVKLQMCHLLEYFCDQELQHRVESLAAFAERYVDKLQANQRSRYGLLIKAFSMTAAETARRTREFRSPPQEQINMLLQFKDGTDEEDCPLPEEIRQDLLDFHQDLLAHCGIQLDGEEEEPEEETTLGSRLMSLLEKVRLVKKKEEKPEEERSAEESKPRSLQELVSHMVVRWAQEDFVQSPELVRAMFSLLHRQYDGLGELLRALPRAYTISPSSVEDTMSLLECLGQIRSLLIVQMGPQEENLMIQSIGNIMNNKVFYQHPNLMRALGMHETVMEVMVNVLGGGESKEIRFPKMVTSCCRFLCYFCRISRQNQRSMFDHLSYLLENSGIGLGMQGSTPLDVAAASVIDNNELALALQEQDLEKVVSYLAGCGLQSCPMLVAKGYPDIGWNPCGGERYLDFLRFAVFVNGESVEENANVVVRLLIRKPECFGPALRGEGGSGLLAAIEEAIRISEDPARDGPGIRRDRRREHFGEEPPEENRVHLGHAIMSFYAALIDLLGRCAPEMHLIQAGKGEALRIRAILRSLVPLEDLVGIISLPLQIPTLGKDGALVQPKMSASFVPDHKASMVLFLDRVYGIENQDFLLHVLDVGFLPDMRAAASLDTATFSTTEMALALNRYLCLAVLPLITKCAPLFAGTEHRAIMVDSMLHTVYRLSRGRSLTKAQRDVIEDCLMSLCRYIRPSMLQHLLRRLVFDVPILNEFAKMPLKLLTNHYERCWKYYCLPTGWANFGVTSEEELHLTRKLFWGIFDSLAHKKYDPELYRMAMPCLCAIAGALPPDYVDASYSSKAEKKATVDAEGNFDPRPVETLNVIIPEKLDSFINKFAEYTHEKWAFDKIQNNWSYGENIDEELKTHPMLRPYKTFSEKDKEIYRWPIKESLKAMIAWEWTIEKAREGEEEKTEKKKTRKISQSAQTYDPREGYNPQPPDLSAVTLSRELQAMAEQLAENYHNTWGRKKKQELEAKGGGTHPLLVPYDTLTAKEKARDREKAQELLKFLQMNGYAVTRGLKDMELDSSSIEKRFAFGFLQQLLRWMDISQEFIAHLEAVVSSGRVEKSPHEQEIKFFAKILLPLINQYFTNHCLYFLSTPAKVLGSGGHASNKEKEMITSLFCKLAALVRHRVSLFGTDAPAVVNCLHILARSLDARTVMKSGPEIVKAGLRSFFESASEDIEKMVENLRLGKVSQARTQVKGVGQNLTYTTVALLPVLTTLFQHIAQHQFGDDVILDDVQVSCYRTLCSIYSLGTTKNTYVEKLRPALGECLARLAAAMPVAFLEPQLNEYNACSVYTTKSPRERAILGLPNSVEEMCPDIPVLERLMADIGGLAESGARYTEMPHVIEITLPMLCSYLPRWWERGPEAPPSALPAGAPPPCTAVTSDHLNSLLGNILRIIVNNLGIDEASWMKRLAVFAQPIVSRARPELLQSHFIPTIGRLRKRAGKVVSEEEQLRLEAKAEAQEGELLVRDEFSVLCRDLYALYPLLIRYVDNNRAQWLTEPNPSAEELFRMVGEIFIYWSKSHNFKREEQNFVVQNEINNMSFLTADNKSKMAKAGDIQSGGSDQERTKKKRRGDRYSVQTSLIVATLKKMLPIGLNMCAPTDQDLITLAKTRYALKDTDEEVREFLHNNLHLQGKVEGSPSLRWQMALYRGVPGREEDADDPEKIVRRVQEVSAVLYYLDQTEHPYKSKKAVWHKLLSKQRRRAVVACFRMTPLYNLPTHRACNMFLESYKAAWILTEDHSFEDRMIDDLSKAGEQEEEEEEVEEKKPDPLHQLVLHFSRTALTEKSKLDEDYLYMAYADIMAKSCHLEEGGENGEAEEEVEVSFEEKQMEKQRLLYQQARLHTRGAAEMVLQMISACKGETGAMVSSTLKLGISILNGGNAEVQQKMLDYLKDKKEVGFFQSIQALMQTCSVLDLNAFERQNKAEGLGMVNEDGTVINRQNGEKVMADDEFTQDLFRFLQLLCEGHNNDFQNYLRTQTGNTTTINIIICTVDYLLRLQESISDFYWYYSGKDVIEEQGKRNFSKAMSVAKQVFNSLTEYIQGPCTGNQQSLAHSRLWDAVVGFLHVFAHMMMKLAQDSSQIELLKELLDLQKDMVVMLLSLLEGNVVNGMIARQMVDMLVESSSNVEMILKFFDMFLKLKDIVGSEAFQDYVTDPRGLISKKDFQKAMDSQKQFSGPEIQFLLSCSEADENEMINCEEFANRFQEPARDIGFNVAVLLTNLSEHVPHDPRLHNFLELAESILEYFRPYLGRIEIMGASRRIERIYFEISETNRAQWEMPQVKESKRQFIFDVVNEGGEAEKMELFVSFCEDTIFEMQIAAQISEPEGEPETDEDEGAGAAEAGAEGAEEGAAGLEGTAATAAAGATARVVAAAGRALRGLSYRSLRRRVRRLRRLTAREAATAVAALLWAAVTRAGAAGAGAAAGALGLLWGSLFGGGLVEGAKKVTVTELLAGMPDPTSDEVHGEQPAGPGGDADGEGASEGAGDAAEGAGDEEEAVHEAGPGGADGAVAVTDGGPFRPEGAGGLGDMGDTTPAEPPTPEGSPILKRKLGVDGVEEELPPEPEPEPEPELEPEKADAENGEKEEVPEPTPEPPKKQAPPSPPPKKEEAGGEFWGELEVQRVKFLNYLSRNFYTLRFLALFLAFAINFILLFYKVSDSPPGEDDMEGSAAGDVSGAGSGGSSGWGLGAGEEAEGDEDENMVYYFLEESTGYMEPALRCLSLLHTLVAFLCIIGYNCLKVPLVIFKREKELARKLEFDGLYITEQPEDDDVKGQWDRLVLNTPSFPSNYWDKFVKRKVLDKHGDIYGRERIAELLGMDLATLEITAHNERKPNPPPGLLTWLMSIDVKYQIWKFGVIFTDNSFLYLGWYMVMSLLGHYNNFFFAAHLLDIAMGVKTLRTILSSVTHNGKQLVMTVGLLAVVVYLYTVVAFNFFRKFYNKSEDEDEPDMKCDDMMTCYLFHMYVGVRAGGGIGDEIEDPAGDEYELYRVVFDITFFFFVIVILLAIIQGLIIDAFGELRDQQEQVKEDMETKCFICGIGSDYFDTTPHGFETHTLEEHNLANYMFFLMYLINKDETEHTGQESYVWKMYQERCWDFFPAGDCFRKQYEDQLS

For `O=C(O[C@@H]1Cc2c(O)cc(O)cc2O[C@H]1c1cc(O)c(O)c(O)c1)c1cc(O)c(O)c(O)c1` [GCG], the “Effect: Reduction of pancreatic lipase activity in vitro” value (“Effect: Reduction … in vitro” for short) (pancreatic lipase) is given as “↑↑↑”.
In the case of `O=C(Oc1c(-c2ccc(O)c(O)c2)oc2cc(O)cc(O)c2c1=O)c1cc(O)c(O)c(O)c1` [3GQ], the “Effect: Induction of heme oxygenase 1 in RAW264, 7 cells” value [1] is given as “↓↓” and the “Effect: Cytotoxicity, inhibition of proliferation, migration and tube formation of HUVEC” value (“Effect: Cytotoxicity, inhibition” below) (HUVEC [2]) is given as “↑↑”.
For `Oc1cc(O)c2c(c1)O[C@H](c1ccc(O)c(O)c1)[C@H](O)C2` [EC, epicatechin], the “Effect: Cytotoxicity towards S-G cells (immortalized gum epithelial cells)” value (“Effect: Cytotoxicity towards S-G cells” below) [3] is listed as “↑”.
In the case of `NC(=O)NCCC[C@H](N)C(=O)O.NC(=O)NCCC[C@H](N)C(=O)O.O=C(O)CC(O)C(=O)O` (racemic) [L-citrulline-DL-malate 2:1, L-citrulline DL-malate 2:1], the “mean fluorescence (DAF-FM)” value (RAW264.7 mouse cells; RAW264.7 cells, 600 μg/ml samples) is reported as “noticeably low mean fluorescence”.
For catechin, the “Effect: Inhibition of fatty acid synthase activity” value (fatty acid synthase) is given as “•” and the “Effect: Suppression of fatty acid synthase expression n MCF-7 cells” value (“Effect: Suppression” below) [4] is given as “•”.
In the case of `O=C(OC[C@H]1O[C@@H](OC(=O)c2cc(O)c(O)c(O)c2)[C@H](OC(=O)c2cc(O)c(O)c(O)c2)[C@@H](OC(=O)c2cc(O)c(O)c(O)c2)[C@@H]1OC(=O)c1cc(O)c(O)c(O)c1)c1cc(O)c(O)c(O)c1` [PGG], the “Effect: Inhibitory effects on LNCaP and DU145 cells” value (LNCaP and DU145 cells) is given as “↑↑↑”, the “Effect: Growth inhibition of MCF-7 and MDA-MB231 cells” value [5] is given as “↑↑↑” and the “Effect: Reduction of cell viability in HL-60 cells” value (HL-60 cells [6]) is given as “↑↑↑”. For the same compound, the “Effect: Inhibition of rat liver microsomal 5α-reductase” value [7] was “↑↑↑”, the “Effect: Triggering of suicidal erythrocyte death” value (erythrocytes) was “↑↑” and the “Effect: Cytotoxicity towards K562 cells” value (K562 cells) was “↑”.
In the case of `O=C(O)c1cc(O)c(O)c(O)c1` [GA, gallic acid], the “Effect: Inhibition of fatty acid synthase activity” value (fatty acid synthase) is given as “↑” and the “Effect: Induction of apoptosis in HL-60 cells” value (HL-60 cells [8]) is given as “↑↑”.
For `O=C(O[C@H]1Cc2c(O)cc(O)cc2O[C@@H]1c1ccc(O)c(O)c1)c1cc(O)c(O)c(O)c1` [CG], the “Effect: Reduction … in vitro” value (pancreatic lipase) is given as “↑↑↑” and the “Effect: Cytotoxicity towards S-G cells” value ([3]; Control: Untreated cells) is given as “↑↑↑”.
In the case of `Oc1cc(O)c2c(c1)O[C@H](c1cc(O)c(O)c(O)c1)[C@H](O)C2` [EGC], the “Effect: Inhibition of fatty acid synthase activity” value (fatty acid synthase) is listed as “↑”, the “Effect: Inhibition of VEGF-induced proliferation of HUVEC” value (shortened to “Effect: Inhibition … of HUVEC”) (HUVEC [9]) is listed as “↑” and the “Effect: Activiation of type 1 ryanodine receptor” value (shortened to “Effect: Activiation”) [10] is listed as “↑”. The “Effect: Inhibition of NA+/K+ ATPase pump activity” value (NA+/K+ ATPase pump) was “↑”, the “Effect: Inhibition of NA/H exchanger activity” value (NA/H exchanger) was “↑↑↑” and the “Effect: Suppression” value [4] was “•”. The “Effect: Cytotoxicity towards S-G cells” value ([3]; Control: Untreated cells) was “↑↑”.
For `N=C(N)NCCC[C@H](N)C(=O)O` [L-arginine], the “mean fluorescence (DAF-FM)” value (RAW264.7 mouse cells) was “noticeably low mean fluorescence”.
For `O=C(O[C@@H]1Cc2c(O)cc(O)cc2O[C@@H]1c1cc(O)c(O)c(O)c1)c1cc(O)c(O)c(O)c1` [EGCG, epigallocatechin gallate], the “Effect: Inhibition of fatty acid synthase activity” value (fatty acid synthase) is given as “↑↑↑”, the “Effect: Trolox-equivalent antioxidant activity” value [11] is given as “↑↑” and the “Effect: Reduction … in vitro” value (pancreatic lipase) is given as “↑↑”. The “Effect: Inhibition … of HUVEC” value (HUVEC [9]) was “↑↑”, the “Effect: Activiation” value [10] was “↑↑↑” and the “Effect: Inhibition of NA+/K+ ATPase pump activity” value (NA+/K+ ATPase pump) was “↑↑”. The “Effect: Inhibition of NA/H exchanger activity” value (NA/H exchanger) was “↑”, the “Effect: Suppression” value [4] was “↑↑↑” and the “Effect: Reduction of cell viability in HL-60 cells” value (HL-60 cells [6]) was “↑↑”. For the same compound, the “Effect: Inhibition of rat liver microsomal 5α-reductase” value ([7]; Control: Untreated enzyme) was “↑”, the “Effect: Cytotoxicity towards S-G cells” value [3] was “↑↑↑” and the “Effect: Cytotoxicity, inhibition” value (HUVEC [2]; galloyl-derivative compared to non-galloylated parent molecule) was “↑↑^c”.
In the case of `O=C(O[C@@H]1Cc2c(O)cc(O)cc2O[C@@H]1c1ccc(O)c(O)c1)c1cc(O)c(O)c(O)c1` [ECG, Epicatechin gallate], the “Effect: Inhibition of fatty acid synthase activity” value (fatty acid synthase) is given as “↑↑↑”, the “Effect: Reduction … in vitro” value (pancreatic lipase) is given as “↑↑” and the “Effect: Inhibition … of HUVEC” value (HUVEC [9]) is given as “↑↑”. For the same compound, the “Effect: Activiation” value [10] was “↑↑↑”, the “Effect: Inhibition of NA+/K+ ATPase pump activity” value (NA+/K+ ATPase pump) was “↑↑” and the “Effect: Inhibition of NA/H exchanger activity” value (NA/H exchanger) was “↑↑”. The “Effect: Inhibition of VEGF-induced proliferation migration and tube formation of human umbilical vein endothelial cells (HUVEC)” value [12] was “↑^c” and the “Effect: Cytotoxicity towards S-G cells” value ([3]; Control: Untreated cells) was “↑↑↑”.
For “lipopolysaccharides from E. coli 0111: B4 [LPS]”, the “DAF-FM fluorescence (nitric oxide levels)” value (RAW264.7 mouse cells; RAW264.7 cells, 1 ng/ml incubated for 30 minutes) was “bright and consistent DAF-FM fluorescence”.
For `O=C(Oc1cc(O)c2c(c1)O[C@H](c1ccc(O)c(O)c1)[C@@H](O)C2=O)c1cc(O)c(O)c(O)c1` [7GT], the “Effect: Induction of heme oxygenase 1 in RAW264, 7 cells” value [1] is given as “↑↑↑” and the “Effect: Cytotoxicity, inhibition” value (HUVEC [2]) is given as “↑↑”.
